Measurements from patent US7491819B1 (priority 2004, dated 2009).
Like-named read-outs stand apart in the source and are kept apart here.

Experiments:
[1] = test system: HIV-1 303B; test: microbe, parasite or virus in culture; format: cell-based; settings: for EC50: Human immunodeficiency virus 1, MT2, 120 h; for overall antiviral effect of the two-drug combination with Example 19 (in words): classification from combination indices and confidence intervals; for Combination Indices at 50% HIV Inhibition (Confidence Interval) / Combination Indices at 75% HIV Inhibition (Confidence Interval) / Combination Indices at 90% HIV Inhibition (Confidence Interval): in combination with Example 19, 95% CI in parenthesis
Description: Virus and cell lines. The T-cell line, MT-2, was obtained through the AIDS Research and Reference Reagent Program. MT-2 cells were sub-cultured twice a week in RPMI 1640 medium supplemented with 10% fetal bovine serum, 2 mM L-glutamine, and 10 mM HEPES buffer pH 7.5. The HIV-1303B virus is a molecular clone derived from the NL4-3 strain of HIV-1 that was obtained from the NIH AIDS Research and Reference Reagent Program. For combinations with enfuvirtide, the NL36G virus was used. […] Virus stocks were made by transfecting 293T cells with a proviral DNA clone using LipofectAMINE PLUS (Invitrogen), according to the manufacturer's instructions. Three days post-transfection, virus was harvested and passaged once in MT-2 cells before titration in MT-2 cells.
Chemicals. Example 19, atazanavir, didanosine, stavudine, efavirenz, and enfuvirtide (T-20) were synthesized by Bristol-Myers Squibb using published or known reactions. […] Tenofovir was tested as tenofovir disopoxil fumarate. Zidovudine and zalcitabine were purchased from Sigma, and emtricitabine from Moravek Biochemicals.
Drug Susceptibility and Cytotoxicity Assays. For drug susceptibility assays, MT-2 cells were infected with HIV-1 303B (or NL36G), at an MOI of 0.001, and seeded into 96-well microtiter plates (2.5×10^5 cells/ml) containing serial dilutions of test compounds. […] Each drug ratio consisted of an array of 3-fold serial dilutions, and was performed with eight or more replicas on separate multi-well plates. HIV infected cells were incubated at 37° C. in 5% CO2, and on day five post-infection, the extent of virus replication was measured by determining cell viability using the CellTiter 96 Aqueous Non-Radioactive Cell Proliferation Assay (Promega). […] Cytotoxicity assays were performed in parallel with the combination experiments. Here, uninfected cells were exposed to the same drug combinations, and assayed after five days for cell viability using the MTS assay.
Analysis of Drug Combination Effects. For determination of combination index (CI) values, drugs were diluted in a fixed ratio and multiple ratios were analyzed. The drug serial dilutions spanned a range of concentrations near the EC50 value of each compound, so that equivalent antiviral activities could be compared. The normalized responses from each therapy are fit to the four-parameter logistic model with a common minimum and maximum across all therapies. Conceptually, this equation can be written as
In this equation, Fa stands for “fraction affected,” and represents the fraction of the viral load that has been inactivated. […] The EC50, represented by the Ci in the above equation, is the drug concentration that is expected to reduce the amount of virus by 50%, and the Bi are the parameters that reflects the slope of the concentration-response curve. For this assay, A is the bottom plateau common to all curves, D is the common top plateau, Bj is the “slope” parameter for the jth therapy, and Cj is the concentration that produces an effect equal to the average of A and D for the jth therapy. Therapies 1 and 2 correspond to mono therapies 1 and 2, respectively. Therapies 3, 4, and 5 correspond to the three combination therapies. EC50 values for each drug were determined from the single drug experiments, using the above equation. The equation was fit using a nonlinear regression routine (Proc Nlin) in PC SAS version 8.2 (SAS Institute Inc.).
To assess antiviral effects of different drug combination treatments, combination indices (CIs) were calculated according to Chou and Rideout. The combination index was computed as
In this equation [Dm]1 and [Dm]2 are the concentrations of drugs that would individually produce a specific level of effect, while [D]1 and [D]2 are the concentrations of drugs in combination that would produce the same level of effect.
Theoretically, additivity is implied if the CI is equal to one, synergy if the CI is less than one, and antagonism if the CI is greater than one.

[2] = biological target: T1, HIV-integrase (Human immunodeficiency virus type 1 group M subtype B, UniProt P12497); test: HIV-Integrase Inhibition Activity (SPA bead strand-transfer assay); format: biochemical
T1 construct: Recombinant integrase (0.26 ng) was incubated with the beads
Outline: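 Strand-transfer read-out: CPM from P33-labelled target DNA (0.1 fmol) joined to bead-bound biotin substrate DNA (5 pmole), with EDTA stop at 10 mM final. Integrase (0.26 ng) prebound to streptavidin SPA beads 90 min, 37° C, and washed before adding inhibitor.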

[3] = EC50 ratio Example 19:comparator 1:1
[4] = EC50 ratio Example 19:comparator 1:2.5
[5] = EC50 ratio Example 19:comparator 2.5:1
[6] = Table 1, read-out: Activity (HIV-integrase inhibition, IC50 class)

What does the source list for `Nc1nc(NC2CC2)c2ncn([C@H]3C=C[C@@H](CO)C3)c2n1` [Abacavir, abacavir]?
EC50 [1]: 1040 nM; overall antiviral effect of the two-drug combination with Example 19 (in words) [1]: synergistic; Combination Indices at 50% HIV Inhibition (Confidence Interval) [1, 3]: 0.68 (0.59, 0.76); Combination Indices at 75% HIV Inhibition (Confidence Interval) [1, 3]: 0.67 (0.56, 0.79); Combination Indices at 90% HIV Inhibition (Confidence Interval) [1, 3]: 0.67 (0.49, 0.84); Combination Indices at 50% HIV Inhibition (Confidence Interval) [1, 4]: 0.87 (0.77, 0.97); Combination Indices at 75% HIV Inhibition (Confidence Interval) [1, 4]: 0.74 (0.63, 0.85); Combination Indices at 90% HIV Inhibition (Confidence Interval) [1, 4]: 0.63 (0.50, 0.77); Combination Indices at 50% HIV Inhibition (Confidence Interval) [1, 5]: 0.86 (0.76, 0.96); Combination Indices at 75% HIV Inhibition (Confidence Interval) [1, 5]: 0.82 (0.68, 0.96); Combination Indices at 90% HIV Inhibition (Confidence Interval) [1, 5]: 0.79 (0.58, 0.99)

How did the EC50 [1] turn out when `CC(C)CN(C[C@@H](O)[C@H](Cc1ccccc1)NC(=O)O[C@H]1CCOC1)S(=O)(=O)c1ccc(N)cc1` [Amprenavir, amprenavir] was run?
Its EC50 is 62 nM.

And the “overall antiviral effect of the two-drug combination with Example 19 (in words)” value [1]?
Its value is “synergistic-additive effect”.

And the “Combination Indices at 50% HIV Inhibition (Confidence Interval)” value [1, 3]?
Its value is 0.83 (0.67, 1.00).

And the “Combination Indices at 75% HIV Inhibition (Confidence Interval)” value [1, 3]?
The value was 0.84 (0.61, 1.08).

What about the “Combination Indices at 90% HIV Inhibition (Confidence Interval)” value [1, 3] of the same molecule?
The value was 0.89 (0.50, 1.23).

And the “Combination Indices at 50% HIV Inhibition (Confidence Interval)” value [1, 4]?
The value was 0.84 (0.69, 0.99).

What about the “Combination Indices at 75% HIV Inhibition (Confidence Interval)” value [1, 4] of the same molecule?
Its value is 0.77 (0.58, 0.96).

And the “Combination Indices at 90% HIV Inhibition (Confidence Interval)” value [1, 4]?
The value was 0.75 (0.46, 1.04).

What about the “Combination Indices at 50% HIV Inhibition (Confidence Interval)” value [1, 5] of the same molecule?
Its value is 0.90 (0.77, 1.04).

What about the “Combination Indices at 75% HIV Inhibition (Confidence Interval)” value [1, 5] of the same molecule?
The value was 0.62 (0.50, 0.74).

And the “Combination Indices at 90% HIV Inhibition (Confidence Interval)” value [1, 5]?
The value was 0.44 (0.30, 0.57).

With `COC(=O)N[C@H](C(=O)N[C@@H](Cc1ccccc1)[C@@H](O)CN(Cc1ccc(-c2ccccn2)cc1)NC(=O)[C@@H](NC(=O)OC)C(C)(C)C)C(C)(C)C` [Atazanavir, atazanavir] as the molecule, how does the EC50 [1] read?
The EC50 was 10 nM.

What about the “overall antiviral effect of the two-drug combination with Example 19 (in words)” value [1] of the same molecule?
Its value is “confidence interval is below one at all concentrations and effective levels”.

What about the “Combination Indices at 50% HIV Inhibition (Confidence Interval)” value [1, 3] of the same molecule?
The value was 0.87 (0.79, 0.96).

And the “Combination Indices at 75% HIV Inhibition (Confidence Interval)” value [1, 3]?
Its value is 0.67 (0.55, 0.80).

What about the “Combination Indices at 90% HIV Inhibition (Confidence Interval)” value [1, 3] of the same molecule?
The value was 0.52 (0.37, 0.67).

And the “Combination Indices at 50% HIV Inhibition (Confidence Interval)” value [1, 4]?
The value was 0.65 (0.51, 0.78).

What about the “Combination Indices at 75% HIV Inhibition (Confidence Interval)” value [1, 4] of the same molecule?
The value was 0.45 (0.31, 0.58).

What about the “Combination Indices at 90% HIV Inhibition (Confidence Interval)” value [1, 4] of the same molecule?
The value was 0.31 (0.19, 0.44).

What about the “Combination Indices at 50% HIV Inhibition (Confidence Interval)” value [1, 5] of the same molecule?
Its value is 0.78 (0.69, 0.86).

And the “Combination Indices at 75% HIV Inhibition (Confidence Interval)” value [1, 5]?
Its value is 0.60 (0.54, 0.67).

What about the “Combination Indices at 90% HIV Inhibition (Confidence Interval)” value [1, 5] of the same molecule?
The value was 0.47 (0.40, 0.54).

For `Cc1ccc(C)c(CNC(=O)c2nc3n(c(=O)c2O)CCOC3(C)C)c1` [Example 269, Pyrimido[2,1-c][1,4]oxazine-2-carboxamide, N-[(2,5-dimethylphenyl)methyl]-4,6,7,9-tetrahydro-3-hydroxy-9,9-dimethyl-4-oxo-], which IC50 [2, 6] is on record?
The IC50 was 2 to 100 nM.

`CC1(C)OCCn2c1nc(C(=O)NCc1ccc(Cl)cc1Cl)c(O)c2=O` [Example 271, Pyrimido[2,1-c][1,4]oxazine-2-carboxamide, N-[(2,4-dichlorophenyl)methyl]-4,6,7,9-tetrahydro-3-hydroxy-9,9-dimethyl-4-oxo-] was tested. Which IC50 [2, 6] did it give?
Its IC50 is 2 to 100 nM.

With `Cc1cc(Cl)ccc1CNC(=O)c1nc2n(c(=O)c1O)CCOC2(C)C` [Example 272, Pyrimido[2,1-c][1,4]oxazine-2-carboxamide, N-[(4-chloro-2-methylphenyl)methyl]-4,6,7,9-tetrahydro-3-hydroxy-9,9-dimethyl-4-oxo-] as the molecule, how does the IC50 [2, 6] read?
The IC50 was 2 to 100 nM.

With `CC1(C)OCCn2c1nc(C(=O)NCc1c(F)cccc1Cl)c(O)c2=O` [Example 273, Pyrimido[2,1-c][1,4]oxazine-2-carboxamide, N-[(2-chloro-6-fluorophenyl)methyl]-4,6,7,9-tetrahydro-3-hydroxy-9,9-dimethyl-4-oxo-] as the molecule, how does the IC50 [2, 6] read?
Its IC50 is 2 to 100 nM.

`Cc1ccc(Cl)c(CNC(=O)c2nc3n(c(=O)c2O)CCOC3(C)C)c1F` [Example 274, Pyrimido[2,1-c][1,4]oxazine-2-carboxamide, N-[(6-chloro-2-fluoro-3-methylphenyl)methyl]-4,6,7,9-tetrahydro-3-hydroxy-9,9-dimethyl-4-oxo-] was tested. Which IC50 [2, 6] did it give?
The IC50 was 2 to 100 nM.

How did the IC50 [2, 6] turn out when `Cc1ccc(F)c(CNC(=O)c2nc3n(c(=O)c2O)CCOC3(C)C)c1F` [Example 275, Pyrimido[2,1-c][1,4]oxazine-2-carboxamide, N-[(2,6-difluoro-3-methylphenyl)methyl]-4,6,7,9-tetrahydro-3-hydroxy-9,9-dimethyl-4-oxo-] was run?
Its IC50 is 2 to 100 nM.

Which IC50 [2, 6] does the source give for `Cc1ccc(CNC(=O)c2nc3n(c(=O)c2O)CCOC3(C)C)c(F)c1F` [Example 276, Pyrimido[2,1-c][1, 4]oxazine-2-carboxamide, N-[(2,3-difluoro-4-methylphenyl)methyl]-4,6,7,9-tetrahydro-3-hydroxy-9,9-dimethyl-4-oxo-] here?
Its IC50 is 2 to 100 nM.

For `CC1(C)OCCn2c1nc(C(=O)NCc1ccc(Cl)cc1F)c(O)c2=O` [Example 277, Pyrimido[2,1-c][1,4]oxazine-2-carboxamide, N-[(4-chloro-2-fluorophenyl)methyl]-4,6,7,9-tetrahydro-3-hydroxy-9,9-dimethyl-4-oxo-], which IC50 [2, 6] is on record?
The IC50 was 2 to 100 nM.

With `Cc1ccc(F)c(CNC(=O)c2nc3n(c(=O)c2O)CCOC3(C)C)c1Cl` [Example 278, Pyrimido[2,1-c][1,4]oxazine-2-carboxamide, N-[(2-chloro-6-fluoro-3-methylphenyl)methyl]-4,6,7,9-tetrahydro-3-hydroxy-9,9-dimethyl-4-oxo-] as the molecule, how does the IC50 [2, 6] read?
The IC50 was 2 to 100 nM.

Which IC50 [2, 6] does the source give for `Cn1ccc2c(CNC(=O)c3nc4n(c(=O)c3O)CCOC4(C)C)cccc21` [Example 279, Pyrimido[2,1-c][1,4]oxazine-2-carboxamide, 4,6,7,9-tetrahydro-3-hydroxy-9,9-dimethyl-N-[(1-methyl-1H-indol-4-yl)methyl]-4-oxo-] here?
The IC50 was 2 to 100 nM.

For `CC1(C)OCCCn2c1nc(C(=O)NCc1ccc(F)cc1N1CCC1=O)c(O)c2=O` [Example 280, 6H-Pyrimido[2,1-c][1,4]oxazepine-2-carboxamide, N-[[4-fluoro-2-(2-oxo-1-azetidinyl)phenyl]methyl]-4,7,8,10-tetrahydro-3-hydroxy-10,10-dimethyl-4-oxo-], which IC50 [2, 6] is on record?
Its IC50 is 2 to 100 nM.

With `COP(=O)(OC)c1cc(F)ccc1CNC(=O)c1nc2n(c(=O)c1O)CCOC2(C)C` [Example 281, Phosphonic acid, [5-fluoro-2-[[[(4,6,7,9-tetrahydro-3-hydroxy-9,9-dimethyl-4-oxopyrimido[2,1-c][1,4]oxazin-2-yl)carbonyl]amino]methyl]phenyl]-, dimethyl ester] as the molecule, how does the IC50 [2, 6] read?
Its IC50 is 2 to 100 nM.

`CCOP(=O)(O)c1cc(F)ccc1CNC(=O)c1nc2n(c(=O)c1O)CCOC2(C)C` [Example 282, Phosphonic acid, [5-fluoro-2-[[[(4,6,7,9-tetrahydro-3-hydroxy-9,9-dimethyl-4-oxopyrimido[2,1-c][1,4]oxazin-2-yl)carbonyl]amino]methyl]phenyl]-, monoethyl ester] was tested. Which IC50 [2, 6] did it give?
The IC50 was 2 to 100 nM.

`CC1(C)OCCn2c1nc(C(=O)NCc1ccc(F)cc1SCCO)c(O)c2=O` [Example 313, Pyrimido[2,1-c][1,4]oxazine-2-carboxamide, N-[[4-fluoro-2-[(2-hydroxyethyl)thio]phenyl]methyl]-4,6,7,9-tetrahydro-3-hydroxy-9,9-dimethyl-4-oxo-] was tested. Which IC50 ([2]; Table 2a, read-out: HIV-Integrase Inhibition Activity) did it give?
The IC50 was 2 to 100 nM.
